Measurements taken from the NIST ThermoML archive (doi:10.1021/je0503305).
Where “and” joins values, the source holds several entries; their conditions need not be identical. Equal entries are not always repeated.

Key:
[1] = Crystal; for vapor or sublimation pressure: Calculated from knudsen effusion weight loss; for Normal melting temperature: DTA
[2] = Molar enthalpy of transition or fusion; conditions: Crystal; DSC

COC(=O)c1cccc(C(=O)O)c1 [1,3-benzenedicarboxylic acid, monomethyl ester]
[1]
Conditions | vapor or sublimation pressure
359.26 K | 0.000134 kPa and 0.000136 kPa
361.24 K | 0.000172 kPa and 0.000169 kPa
363.28 K | 0.000211 kPa and 0.00021 kPa and 0.000202 kPa
365.26 K | 0.000256 kPa and 0.000252 kPa and 0.000264 kPa
367.13 K | 0.000313 kPa and 0.000311 kPa
369.28 K | 0.000397 kPa and 0.000399 kPa and 0.000382 kPa
371.24 K | 0.000499 kPa and 0.000487 kPa and 0.000474 kPa
373.12 K | 0.000588 kPa and 0.000586 kPa and 0.000569 kPa
375.27 K | 0.000773 kPa and 0.000759 kPa and 0.000741 kPa
377.24 K | 0.000953 kPa and 0.000928 kPa and 0.000917 kPa
379.12 K | 0.001122 kPa and 0.001111 kPa

Conditions | Molar enthalpy of transition or fusion [kcal/mol] | Normal melting temperature [°C]
[1] | – | 193.53
[2] | 8.72 | –

COC(=O)c1ccc(C(=O)O)cc1 [1,4-benzenedicarboxylic acid, monomethyl ester]
[1]
Conditions | vapor or sublimation pressure
363.16 K | 0.000139 kPa and 0.00014 kPa
365.15 K | 0.000169 kPa and 0.000171 kPa and 0.000167 kPa
367.19 K | 0.000212 kPa and 0.000209 kPa
370.18 K | 0.000289 kPa and 0.000294 kPa and 0.000286 kPa
372.17 K | 0.000361 kPa and 0.000363 kPa and 0.000354 kPa
374.2 K | 0.000452 kPa and 0.000449 kPa and 0.000439 kPa
377.37 K | 0.00063 kPa and 0.000621 kPa and 0.00062 kPa
379.26 K | 0.000768 kPa and 0.000743 kPa and 0.000739 kPa
381.51 K | 0.00094 kPa and 0.000931 kPa and 0.000926 kPa

Conditions | Molar enthalpy of transition or fusion [kcal/mol] | Normal melting temperature [°C]
[1] | – | 219.39
[2] | 9.01 | –

COC(=O)c1ccccc1C(=O)O [phthalic acid, monomethyl ester]
[1]
Conditions | vapor or sublimation pressure
335.28 K | 0.000112 kPa and 0.000118 kPa and 0.000115 kPa
337.26 K | 0.000154 kPa and 0.000148 kPa and 0.000149 kPa
339.2 K | 0.000184 kPa and 0.000187 kPa and 0.00019 kPa
341.24 K | 0.000239 kPa and 0.000243 kPa
343.11 K | 0.000298 kPa and 0.000306 kPa and 0.000301 kPa
345.27 K | 0.000388 kPa and 0.000386 kPa
347.24 K | 0.000471 kPa and 0.00048 kPa and 0.000468 kPa
349.12 K | 0.000579 kPa and 0.000575 kPa and 0.000593 kPa
351.06 K | 0.000743 kPa and 0.000733 kPa and 0.000751 kPa
353.23 K | 0.000981 kPa and 0.000964 kPa and 0.000948 kPa
355.28 K | 0.001233 kPa and 0.001242 kPa

Conditions | Molar enthalpy of transition or fusion [kcal/mol] | Normal melting temperature [°C]
[1] | – | 84.4
[2] | 5.17 | –
